Laboratory results from PubChem BioAssay AID248 (DTP/NCI, 2004).
Several values for one entry are separate records, joined by “and”; a condition that tells them apart may be missing. Identical values can stand only once. Toxic doses and inconclusive results are not listed. Rule as the data show it: active = T/C of 150% or more; inactive = T/C below 125%. Square brackets hold non-standard residues; d marks the D form. Peptide text beside a SMILES is read from it. * marks the point of attachment. ξ: configuration not given here. Cbz = O=C(OCc1ccccc1)*; OBn = c1ccc(CO*)cc1; ξP = O=C(O)C1CCCN1

Test system: L1210 leukemia ip in BDF1 mice, survival T/C
Test: NCI In Vivo Anticancer Drug Screen. Data for tumor model L1210 Leukemia (intraperitoneal) in B6D2F1 (BDF1) mice
Conditions: endpoint: mean survival time, higher = longer survival
How it was run: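 In this screen, tumor-bearing mice given compound are compared to those given vehicle, and their survival values are reported as a treated-to-control quotient.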

[1] = dose: 50.0 mg/kg/injection, schedule: Q04DX003 (ip), vehicle: saline
[2] = dose: 100.0 mg/kg/injection, schedule: Q04DX003 (ip), vehicle: saline
[3] = dose: 100.0 mg/kg/injection, schedule: Q01DX001 (ip), vehicle: carboxymethylcellulose (CMC)
[4] = dose: 200.0 mg/kg/injection, schedule: Q01DX001 (ip), vehicle: carboxymethylcellulose (CMC)
[5] = dose: 400.0 mg/kg/injection, schedule: Q01DX001 (ip), vehicle: carboxymethylcellulose (CMC)
[6] = dose: 100.0 mg/kg/injection, schedule: Q01DX009 (ip), vehicle: Klucel (hydroxypropylcellulose) (HPC)
[7] = dose: 100.0 mg/kg/injection, schedule: Q04DX003 (ip), vehicle: Klucel (hydroxypropylcellulose) (HPC)
[8] = dose: 200.0 mg/kg/injection, schedule: Q01DX009 (ip), vehicle: Klucel (hydroxypropylcellulose) (HPC)
[9] = dose: 200.0 mg/kg/injection, schedule: Q04DX003 (ip), vehicle: Klucel (hydroxypropylcellulose) (HPC)
[10] = dose: 400.0 mg/kg/injection, schedule: Q01DX009 (ip), vehicle: Klucel (hydroxypropylcellulose) (HPC)
[11] = dose: 400.0 mg/kg/injection, schedule: Q04DX003 (ip), vehicle: Klucel (hydroxypropylcellulose) (HPC)
[12] = dose: 25.0 mg/kg/injection, schedule: Q01DX009 (ip), vehicle: saline
[13] = dose: 50.0 mg/kg/injection, schedule: Q01DX009 (ip), vehicle: saline
[14] = dose: 100.0 mg/kg/injection, schedule: Q01DX009 (ip), vehicle: saline
[15] = dose: 100.0 mg/kg/injection, schedule: Q04DX003 (ip), vehicle: saline with Tween-80
[16] = dose: 200.0 mg/kg/injection, schedule: Q04DX003 (ip), vehicle: saline with Tween-80
[17] = dose: 400.0 mg/kg/injection, schedule: Q04DX003 (ip), vehicle: saline with Tween-80
[18] = dose: 100.0 mg/kg/injection, schedule: Q04DX002 (ip), vehicle: Klucel (hydroxypropylcellulose) (HPC)
[19] = dose: 200.0 mg/kg/injection, schedule: Q04DX002 (ip), vehicle: Klucel (hydroxypropylcellulose) (HPC)
[20] = dose: 400.0 mg/kg/injection, schedule: Q04DX002 (ip), vehicle: Klucel (hydroxypropylcellulose) (HPC)
[21] = dose: 25.0 mg/kg/injection, schedule: Q04DX003 (ip), vehicle: saline with Tween-80

Measured: T/C

CC1(C)N=C(N)N=C(N)N1c1cccc(Oc2ccc(N)cc2)c1
inactive: dose: 25.0 mg/kg/injection, schedule: Q04DX003 (ip), vehicle: Klucel (hydroxypropylcellulose) (HPC) 103 % of control | dose: 50.0 mg/kg/injection, schedule: Q04DX003 (ip), vehicle: Klucel (hydroxypropylcellulose) (HPC) 110 % of control

CC(=O)Nc1ccc(C(=O)O)c(O)c1
inactive: [1] 113 % of control | [2] 108 % of control | dose: 200.0 mg/kg/injection, schedule: Q04DX003 (ip), vehicle: saline 105 % of control

CC(C)(CO)N=Cc1ccc(O)cc1O
inactive: [3] 96 % of control | [4] 93 % of control | [5] 91 % of control

O=S1OCCS1 (configuration not stated)
inactive: dose: 13.0 mg/kg/injection, schedule: Q01DX Z (sc), vehicle: saline 100 % of control | dose: 36.0 mg/kg/injection, schedule: Q01DX Z (sc), vehicle: saline 100 % of control

COc1ccc(C2=CCCC2)cc1
inactive: [3] 91 % of control | [6] 89 % of control | [7] 96 % of control | [4] 94 % of control | [8] 102 % of control | [9] 101 % of control | [5] 96 % of control | [10] 89 % of control | [11] 102 % of control

CC(=O)/C=C/c1ccc2c(c1)OCO2
inactive: [12] 105 % of control | [13] 96 % of control | [14] 110 % of control | dose: 200.0 mg/kg/injection, schedule: Q01DX009 (ip), vehicle: saline 94 % of control | dose: 400.0 mg/kg/injection, schedule: Q01DX009 (ip), vehicle: saline 102 % of control

COc1cc(NS(C)(=O)=O)ccc1Nc1c2ccc([N+](=O)[O-])cc2nc2c(C)c(C)ccc12
active: dose: 2.7 mg/kg/injection, schedule: Q01DX009 (ip), vehicle: saline 151 % of control | dose: 4.1 mg/kg/injection, schedule: Q01DX009 (ip), vehicle: saline 169 % of control | dose: 12.5 mg/kg/injection, schedule: Q01DX009 (ip), vehicle: saline 157 % of control | dose: 400.0 mg/kg/injection, schedule: Q01DX009 (ip), vehicle: water 150 % of control
inactive: dose: 0.48 mg/kg/injection, schedule: Q01DX009 (ip), vehicle: saline 113 % of control | dose: 6.25 mg/kg/injection, schedule: Q01DX009 (ip), vehicle: water 106 % of control | dose: 12.5 mg/kg/injection, schedule: Q01DX009 (ip), vehicle: water 116 % of control | dose: 22.0 mg/kg/injection, schedule: Q04DX003 (ip), vehicle: saline 114 % of control | dose: 25.0 mg/kg/injection, schedule: Q01DX001 (ip), vehicle: water 122 % of control | [12] 102 % of control | dose: 25.0 mg/kg/injection, schedule: Q01DX009 (ip), vehicle: water 124 % of control | dose: 25.0 mg/kg/injection, schedule: Q01DX009 (sc), vehicle: saline 106 % of control | dose: 35.0 mg/kg/injection, schedule: Q04DX003 (ip), vehicle: saline 120 % of control | dose: 50.0 mg/kg/injection, schedule: Q01DX009 (sc), vehicle: saline 123 % of control | dose: 100.0 mg/kg/injection, schedule: Q01DX009 (sc), vehicle: saline 115 % of control | dose: 200.0 mg/kg/injection, schedule: Q01DX009 (sc), vehicle: saline 124 % of control

CCN(CC)CCCC(C)Nc1ccnc2cc(Cl)ccc12 (configuration not stated)
inactive: dose: 25.0 mg/kg/injection, schedule: Q01DX001 (ip), vehicle: saline 103 % of control | [12] 100 % of control | dose: 25.0 mg/kg/injection, schedule: Q04DX002 (ip), vehicle: saline 95 % of control | dose: 50.0 mg/kg/injection, schedule: Q01DX001 (ip), vehicle: saline 104 % of control | [13] 97 % of control and 98 % of control | dose: 50.0 mg/kg/injection, schedule: Q04DX002 (ip), vehicle: saline 95 % of control | [1] 105 % of control | dose: 100.0 mg/kg/injection, schedule: Q01DX001 (ip), vehicle: saline 118 % of control and 92 % of control | [14] 98 % of control | dose: 100.0 mg/kg/injection, schedule: Q04DX002 (ip), vehicle: saline 95 % of control | [2] 108 % of control

CC1(CC(O)(C(F)(F)F)C(F)(F)F)NC(=O)NC1=O (configuration not stated)
inactive: dose: 100.0 mg/kg/injection, schedule: Q01DX009 (ip), vehicle: saline with Tween-80 97 % of control | [15] 93 % of control | dose: 200.0 mg/kg/injection, schedule: Q01DX009 (ip), vehicle: saline with Tween-80 99 % of control | [16] 96 % of control | dose: 400.0 mg/kg/injection, schedule: Q01DX009 (ip), vehicle: saline with Tween-80 99 % of control | [17] 91 % of control

CCOC(=O)c1ccc(OCCOc2ccc(C(C)(C)CC)cc2)cc1
inactive: [15] 102 % of control | [16] 112 % of control | [17] 108 % of control

C/C(=C\Cl)COC1CCCCO1 (configuration not stated)
inactive: dose: 100.0 mg/kg/injection, schedule: Q01DX009 (ip), vehicle: acetone 95 % of control | dose: 100.0 mg/kg/injection, schedule: Q04DX003 (ip), vehicle: acetone 101 % of control | dose: 200.0 mg/kg/injection, schedule: Q01DX009 (ip), vehicle: acetone 95 % of control | dose: 200.0 mg/kg/injection, schedule: Q04DX003 (ip), vehicle: acetone 101 % of control | dose: 400.0 mg/kg/injection, schedule: Q04DX003 (ip), vehicle: acetone 101 % of control

CCCCN(Cc1ccccc1)C(=O)NC(C)(C)C
inactive: [6] 97 % of control | [8] 102 % of control | [10] 97 % of control

CCc1cccc(CC)c1NC(=O)CCl
inactive: [18] 111 % of control | [7] 108 % of control | [19] 104 % of control | [20] 90 % of control | [11] 95 % of control

O=C(CNC(=O)OCc1ccccc1)NCC(=O)N1CCCC1C(=O)OCc1ccccc1 (stereo not drawn) (Cbz-Gly-Gly-[ξP]-OBn)
inactive: [7] 101 % of control | [9] 103 % of control | [11] 100 % of control

CCOC(=O)C1C(=O)CC(=O)C(C(=O)OCC)C1c1cc(OC)c(OC)c(OC)c1 (configuration not stated)
inactive: [18] 91 % of control | [19] 91 % of control | [20] 94 % of control

CC(=C=CC(c1ccccc1)(c1ccccc1)c1ccccc1)CC(c1ccccc1)(c1ccccc1)c1ccccc1
inactive: [7] 96 % of control | [9] 95 % of control | [11] 95 % of control

O=C(O)C1C(c2ccccc2)=C(c2ccccc2)c2ccccc21 (configuration not stated)
inactive: [21] 92 % of control | dose: 50.0 mg/kg/injection, schedule: Q04DX003 (ip), vehicle: saline with Tween-80 100 % of control | [15] 95 % of control and 103 % of control

CCN(CC)CCN(C)CC(=O)Nc1cccc(Cl)c1C
inactive: [12] 106 % of control | [13] 93 % of control | dose: 75.0 mg/kg/injection, schedule: Q01DX001 (ip), vehicle: saline 101 % of control | [14] 98 % of control | dose: 150.0 mg/kg/injection, schedule: Q01DX001 (ip), vehicle: saline 102 % of control | dose: 150.0 mg/kg/injection, schedule: Q01DX009 (ip), vehicle: saline 100 % of control

CCCN(C(=O)CCl)c1ccccc1
inactive: dose: 12.5 mg/kg/injection, schedule: Q04DX002 (ip), vehicle: Klucel (hydroxypropylcellulose) (HPC) 122 % of control | dose: 25.0 mg/kg/injection, schedule: Q04DX002 (ip), vehicle: Klucel (hydroxypropylcellulose) (HPC) 94 % of control | dose: 50.0 mg/kg/injection, schedule: Q04DX002 (ip), vehicle: Klucel (hydroxypropylcellulose) (HPC) 105 % of control

Nc1ncnc(N)c1NC(=O)c1cccc(Br)c1
inactive: dose: 6.25 mg/kg/injection, schedule: Q04DX003 (ip), vehicle: saline with Tween-80 96 % of control | dose: 12.5 mg/kg/injection, schedule: Q04DX003 (ip), vehicle: saline with Tween-80 96 % of control | [21] 100 % of control and 103 % of control
